Cytotoxicity data for 100 compounds are collected here from ChEMBL document CHEMBL3507680, “University of Dundee, Gates Library screen for HepG2 cell viability”.

The nature of the data set: Human HepG2 cell viability assay in 384 well format. Type of data set: toxicity, cell-based. Also on record: dose 125 nL, time 70.5 hour; concentration not given beside the values. The note with it: HepG2 cells, read-out: Inhibition.
With `Cc1ccc(CN2C(=O)CCC2C(=O)Nc2cnn(C)c2)o1` (stereo not given), the cytotoxicity at 70.5 h was -4.24%.

For `Cc1cc(C(=O)N(C)Cc2cccs2)nc(N2CCCC2)n1`, the cytotoxicity at 70.5 h is -6.81%.

Take `CCOCc1cccc(S(=O)(=O)Nc2ccn(CC)n2)c1`: the cytotoxicity at 70.5 h was -0.0962%.

For the compound `COc1cccc(CNCc2ccccc2Cl)c1O`, the cytotoxicity at 70.5 h is 26.4%.

Turning to `COc1cccc(CNCc2ccc(F)c(Cl)c2)c1O`, the cytotoxicity at 70.5 h stood at 27%.

On to `CCCn1cc(C(=O)n2nc(C)cc2C)c(S(=O)(=O)N2CCSCC2)n1`, for which the cytotoxicity at 70.5 h was -7.23%.

As to `O=C(NCCc1ccccn1)c1[nH]nc2c1CCCC2`, the cytotoxicity at 70.5 h came to 3.78%.

Turning to `CSc1ccc(-c2noc(CN(CC(C)C)CC(C)C)n2)cc1`, the cytotoxicity at 70.5 h is -12.7%.

With `CSc1nc2ccsc2c(=O)n1CC(=O)NC1CCCC1`, the cytotoxicity at 70.5 h is -6.44%.

As to `CCc1cc(=O)n(CC(=O)N2CCCC2)c(-c2cccc(F)c2)n1`, the cytotoxicity at 70.5 h was determined as 4.18%.

Regarding `CCc1cc(=O)n(CC(=O)N2CCC(C)CC2)c(-c2cccc(F)c2)n1`, the cytotoxicity at 70.5 h is -3.1%.

On to `CCc1cc(=O)n(CC(=O)NCC2CCCO2)c(-c2cccc(F)c2)n1` (stereo not given), for which the cytotoxicity at 70.5 h was found to be 2.39%.

As for `CCOC(=O)C1CCN(c2nccc(-n3nc(C)cc3C)n2)CC1`, the cytotoxicity at 70.5 h was -3.45%.

Regarding `O=C(c1nn[nH]c1Nc1ccc(Cl)cc1)N1CCCCCC1`, the cytotoxicity at 70.5 h was -10.3%.

Take `CC(C)N1CCN(C(=O)c2[nH]nnc2Nc2ccccc2F)CC1`: the cytotoxicity at 70.5 h is 16.4%.

Regarding `O=C(c1nn[nH]c1Nc1cccc(Cl)c1)N1CCSCC1`, the cytotoxicity at 70.5 h was found to be 26.2%.

Consider `Cc1cc(=O)n(CC(=O)NCC2CCCO2)c(-c2ccccc2)n1` (stereo not given), for which the cytotoxicity at 70.5 h was 2.72%.

On to `COCCCNC(=O)Cn1c(-c2cccc(Cl)c2)nc(C)cc1=O`, for which the cytotoxicity at 70.5 h turned out to be 2.43%.

For `CCc1cc(=O)n(CC(=O)N2CCCC2)c(-c2ccccc2)n1`, the cytotoxicity at 70.5 h was -5.29%.

Take `Cc1nc(N2CCCCC2)ncc1-c1cc(O)nc(N2CCCCC2)n1`: the cytotoxicity at 70.5 h is -0.353%.

Take `CCC(c1ccccc1)c1nn2c(CN(CC)CC)nnc2s1` (stereo not given): the cytotoxicity at 70.5 h was -5.77%.

`Cc1ncc2c(n1)CCCC2NC(=O)c1cnn(Cc2ccccc2)c1` (stereo not given): the cytotoxicity at 70.5 h is -12.8%.

With `COCC(=O)N1CCC([C@@H]2C[C@H](C(F)(F)F)n3nc(C)cc3N2)CC1`, the cytotoxicity at 70.5 h was -3.42%.

Regarding `Cc1nc(C)n(CCC(=O)N2CCc3ncc(Cl)cc3C2)n1`, the cytotoxicity at 70.5 h was determined as 6.03%.

In the case of `O=C1CN(C(=O)CCn2c(C(F)(F)F)cc3cccnc32)CCN1`, the cytotoxicity at 70.5 h was 4.91%.

For `O=C(c1ccccn1)N1Cc2ccccc2OC2(CCOCC2)C1`, the cytotoxicity at 70.5 h was -0.0226%.

Turning to `CCCNC(=O)C1(CC2CC(c3ccccc3OC)=NO2)CCOCC1` (stereo not given), the cytotoxicity at 70.5 h worked out at 6.7%.

Turning to `Nc1cncc(C(=O)N2Cc3ccccc3OC3(CCOCC3)C2)c1`, the cytotoxicity at 70.5 h was 7.99%.

As to `Cc1nc(N)sc1C(=O)N1Cc2ccccc2OC2(CCOCC2)C1`, the cytotoxicity at 70.5 h amounted to 31.2%.

`CCc1cc(C(=O)N2CCC(c3cc4ncccc4cn3)CC2)on1`: the cytotoxicity at 70.5 h was -0.772%.

Turning to `c1cc(-c2nc(C3CCN(Cc4ccsc4)CC3)no2)ccn1`, the cytotoxicity at 70.5 h is 36.8%.

With `CCc1onc(C)c1C(=O)N1CCC(c2cc3ncccc3cn2)CC1`, the cytotoxicity at 70.5 h was 9.24%.

Turning to `Cc1nc(C2CCCN2C(=O)Cc2ccc(F)cc2)nc(O)c1C` (stereo not given), the cytotoxicity at 70.5 h is 2.83%.

Take `COCCN(C)C(=O)c1ccccc1-n1cc(CN(C)C)cn1`: the cytotoxicity at 70.5 h was -5.25%.

On to `Cc1ccccc1CC(=O)N1CC[C@@](O)(CNS(C)(=O)=O)[C@H](O)C1`, for which the cytotoxicity at 70.5 h turned out to be 0.727%.

With `CN(C)Cc1cnn(-c2ccccc2C(=O)N(C)Cc2ccccc2)c1`, the cytotoxicity at 70.5 h was -5.67%.

Take `Cc1nc(C(=O)N(C)[C@@H]2CCC[C@@H](Oc3ccccc3)[C@@H]2O)co1`: the cytotoxicity at 70.5 h stood at 6.12%.

For `Cc1noc(C)c1-c1ccc(C2CCCN2C(=O)c2cccnc2)nc1` (stereo not given), the cytotoxicity at 70.5 h is -4.62%.

With `COCc1nc(C2CCN(Cc3ncc[nH]3)CC2)no1`, the cytotoxicity at 70.5 h was found to be 6.2%.

For the compound `CC(=O)N1CCC(c2ncc3c(n2)CCN(C(=O)c2ccccc2)C3)C1` (stereo not given), the cytotoxicity at 70.5 h was -2.46%.

For the compound `COCC(=O)N1CCCC(Cc2cnc(-c3c(C)n[nH]c3C)cn2)C1` (stereo not given), the cytotoxicity at 70.5 h turned out to be 0.347%.

Consider `Cc1nc2ccccn2c1CC(=O)N[C@@H]1CCC[C@@H](N2CCCC2)[C@@H]1O`, for which the cytotoxicity at 70.5 h was -1.64%.

Consider `CN(C(=O)c1ccn(C)n1)[C@@H]1CCC[C@@H](Oc2ccccc2)[C@@H]1O`, for which the cytotoxicity at 70.5 h was -4.51%.

Take `O[C@H]1CN(CCOc2ccc(F)cc2)CC[C@@]12CCCO2`: the cytotoxicity at 70.5 h is -2.62%.

`CS(=O)(=O)c1cn[nH]c1C1CCCN1C(=O)c1cccnc1` (stereo not given): the cytotoxicity at 70.5 h was -2.09%.

Turning to `O=C(N[C@@H]1CCC[C@@H](N2CCOCC2)[C@@H]1O)c1ncccn1`, the cytotoxicity at 70.5 h is 6.75%.

In the case of `O=S(=O)(c1ccc(F)cc1)N1CCCC(c2nccs2)C1` (stereo not given), the cytotoxicity at 70.5 h is -2.41%.

In the case of `O=S(=O)(c1ccccc1)N1CCCC(c2nccs2)C1` (stereo not given), the cytotoxicity at 70.5 h was -2%.

Regarding `COCC(=O)N1CCCC1c1nc(O)cc(C(C)C)n1` (stereo not given), the cytotoxicity at 70.5 h was 1.53%.

Turning to `COCCC(=O)N1CCCC1c1nc(O)cc(C(C)C)n1` (stereo not given), the cytotoxicity at 70.5 h is -0.774%.

With `CC(C)c1cc(O)nc(C2CCCN2C(=O)C(C)(C)C)n1` (stereo not given), the cytotoxicity at 70.5 h worked out at 26.4%.

As for `CC(C)c1cc(O)nc(C2CCCN2C(=O)C2CC2)n1` (stereo not given), the cytotoxicity at 70.5 h was -1.44%.

On to `CS(=O)(=O)c1cn[nH]c1C1CCCCN1C(=O)c1ccsc1` (stereo not given), for which the cytotoxicity at 70.5 h was -1.64%.

As to `O=S(=O)(c1cccs1)N1CCCC(c2nccs2)C1` (stereo not given), the cytotoxicity at 70.5 h is -3.29%.

`CC(=O)N1CCC(C(=O)N2CCCC(Cc3ccccn3)C2)CC1` (stereo not given): the cytotoxicity at 70.5 h was -8.43%.

For `Cc1cc(C)nc(C2CCCN2c2ccnc(C)n2)n1` (stereo not given), the cytotoxicity at 70.5 h is -0.201%.

For the compound `CNC(=O)c1cn[nH]c1C1(C)CCCN(Cc2ccccn2)C1` (stereo not given), the cytotoxicity at 70.5 h is -7.3%.

Consider `CCCn1cc(CN2CCCC2c2cccc(-n3ccnc3)n2)cn1` (stereo not given), for which the cytotoxicity at 70.5 h is -7.28%.

On to `CN1CCC(NC(=O)C2CN(c3cncnc3)CCO2)CC1` (stereo not given), for which the cytotoxicity at 70.5 h was -7.93%.

`Cc1noc(C2(C)CCCN(C(=O)c3cnn(C)c3)C2)n1` (stereo not given): the cytotoxicity at 70.5 h is -7.96%.

For `COCc1nc(C2CCN(Cc3nccn3C)CC2)no1`, the cytotoxicity at 70.5 h is -4.44%.

In the case of `CCN(Cc1ccncc1)CC1(O)CCN(C(=O)c2cnn(C)c2)C1` (stereo not given), the cytotoxicity at 70.5 h was -4.91%.

As for `Cc1nc(Nc2nncs2)cc(C2CCCN2C)n1` (stereo not given), the cytotoxicity at 70.5 h worked out at 3.74%.

Consider `CCc1nnc(Nc2cccc(C3CCN(CC4CC4)CC3)n2)s1`, for which the cytotoxicity at 70.5 h is -7.67%.

Consider `CN(C)C(=O)CN1CCCCC1c1nc(N)ncc1-c1ccc(Cl)cc1` (stereo not given), for which the cytotoxicity at 70.5 h is -15.8%.

Turning to `Cc1cc(N)nc(C2(C)CCCN2C(=O)c2cnccn2)n1` (stereo not given), the cytotoxicity at 70.5 h turned out to be 4.65%.

As to `Cc1nc(Nc2nnc(C)s2)cc(C2CCCN2c2ccncn2)n1` (stereo not given), the cytotoxicity at 70.5 h was -8.94%.

Regarding `NC(=O)CN1CCC(c2cncc(-c3cccc(Cl)c3)n2)CC1`, the cytotoxicity at 70.5 h is 15.3%.

`Cc1nc(Nc2ncccn2)cc(C2CCN(CC(C)C)C2)n1` (stereo not given): the cytotoxicity at 70.5 h is -15.1%.

Consider `CCC(=O)N1CCC(Cc2ccccc2-c2ccccc2F)(C(N)=O)C1` (stereo not given), for which the cytotoxicity at 70.5 h is -8.54%.

As to `CCC(=O)N1CCC(Cc2ccccc2-c2cccc(C)c2)(C(N)=O)C1` (stereo not given), the cytotoxicity at 70.5 h was determined as 12.2%.

For the compound `CCN(CC(O)c1ccc(C)cc1)C(=O)NC(C)C` (stereo not given), the cytotoxicity at 70.5 h was -1.93%.

For the compound `CCN1CCN(c2cncc(Cl)n2)CC1`, the cytotoxicity at 70.5 h stood at 26.6%.

For `CC(C)(C)c1ncc(CNCC2CN(C3CC3)CCO2)s1` (stereo not given), the cytotoxicity at 70.5 h is -2.48%.

For `COCCNC(=O)CN(C)C(C)c1nc(C)no1` (stereo not given), the cytotoxicity at 70.5 h stood at 3.14%.

In the case of `CCc1nc(CSCc2csc(CS(C)(=O)=O)n2)cs1`, the cytotoxicity at 70.5 h was -1.17%.

`CCN(C)C(=O)c1cccc(C(=O)N(C)Cc2cccc(O)c2)c1`: the cytotoxicity at 70.5 h was found to be 25.8%.

For `CC(C)CN(CC(O)c1ccccc1)C(=O)NC(C)C` (stereo not given), the cytotoxicity at 70.5 h is -4.36%.

Regarding `CC(C)c1ccc(CNC(c2ccc(F)cn2)C(C)C)cc1` (stereo not given), the cytotoxicity at 70.5 h is 0.89%.

Turning to `CCN1CCOC(CNCc2ccc(C)s2)C1` (stereo not given), the cytotoxicity at 70.5 h is -4.21%.

For `CC1CCN(C(=O)CSCCN2CCOCC2)CC1`, the cytotoxicity at 70.5 h came out at 4.07%.

`COc1ccccc1CC(C)CC(=O)NS(=O)(=O)C(C)C` (stereo not given): the cytotoxicity at 70.5 h is 9.2%.

As to `Cc1cc(C)cc(NCCC(=O)NC2CCCCC2)c1`, the cytotoxicity at 70.5 h stood at 1.57%.

For `O=C(C(c1ccccc1)S(=O)(=O)c1ccccn1)N1CCCC1` (stereo not given), the cytotoxicity at 70.5 h is -2.5%.

As to `Cc1cccc(-c2ccc(C(=O)N3CCSCC3)c(=O)[nH]2)c1`, the cytotoxicity at 70.5 h was found to be 0.198%.

As to `O=C(CCn1c(C(F)(F)F)cc2cccnc21)N1CCOCC1`, the cytotoxicity at 70.5 h turned out to be 0.815%.

With `Cc1csc2nc3n(c(=O)c12)CCN(Cc1ccccn1)CC3`, the cytotoxicity at 70.5 h was 2.36%.

For the compound `O=C(CCn1c(C(F)(F)F)cc2cccnc21)N1CCCC1`, the cytotoxicity at 70.5 h was -0.515%.

`COc1ccccc1CNC(Cc1cccs1)c1nc(C)cs1` (stereo not given): the cytotoxicity at 70.5 h was 3.54%.

Regarding `Cc1nc[nH]c1CN1CCc2nc3scc(C)c3c(=O)n2CC1`, the cytotoxicity at 70.5 h is -1.43%.

Regarding `CC(C)c1cc(C(=O)N2CCc3nc(C4CCCN4)ncc3C2)cs1` (stereo not given), the cytotoxicity at 70.5 h is 0.261%.

As for `Clc1ccccc1OCCc1cc(C2CCNC2)n[nH]1` (stereo not given), the cytotoxicity at 70.5 h was -4.47%.

With `CCOCc1cc(CN2CCn3c(CO)nnc3C2)ccc1OC`, the cytotoxicity at 70.5 h was 1.27%.

Consider `COc1ccc(C(C)(C)C)cc1CN1CCn2c(CO)nnc2C1`, for which the cytotoxicity at 70.5 h is 6.88%.

For `Cc1ccc(CN(CCCn2ccnc2)Cc2cc(F)ccc2F)s1`, the cytotoxicity at 70.5 h worked out at 20.3%.

For `Cc1ccc(CN(CCCn2ccnc2)Cc2cnc(N(C)C)nc2)s1`, the cytotoxicity at 70.5 h was 21.5%.

As for `COc1ccc(F)c(CN(CCCn2ccnc2)Cc2ccc(C)s2)c1`, the cytotoxicity at 70.5 h stood at 45.5%.

In the case of `Cc1ccc(CN(CCCn2ccnc2)Cc2ccccc2O)s1`, the cytotoxicity at 70.5 h was 3.23%.

On to `Cc1ccc(CN(CCCn2ccnc2)Cc2[nH]cnc2C)s1`, for which the cytotoxicity at 70.5 h was 2.51%.

For `Cc1nc(Nc2cnccn2)cc(C2CN(C(C)C)C2)n1`, the cytotoxicity at 70.5 h is -6.87%.
